# According to US20240327412A1, “FACTOR XIIA INHIBITORS” (KALVISTA PHARMACEUTICALS LIMITED, priority 2021, published 2024):
# Molecular target: T1, Human Factor XIIa (Homo sapiens, UniProt P00748)
# T1 construct: Proteolytic cleavage of FXII to heavy and light chains of FXIIa dramatically increases catalytic activity; purchased Enzyme Research Laboratories
# T1 sequence (P00748 373-615 limits assumed): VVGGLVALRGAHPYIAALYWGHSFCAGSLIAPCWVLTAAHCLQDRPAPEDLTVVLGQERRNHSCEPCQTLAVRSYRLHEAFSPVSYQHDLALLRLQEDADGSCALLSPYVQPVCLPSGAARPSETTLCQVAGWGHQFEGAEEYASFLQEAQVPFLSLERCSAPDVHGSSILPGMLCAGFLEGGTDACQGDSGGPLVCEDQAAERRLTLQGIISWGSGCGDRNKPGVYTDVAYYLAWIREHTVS
# T1 sequence (P00748 20-372 partner limits assumed): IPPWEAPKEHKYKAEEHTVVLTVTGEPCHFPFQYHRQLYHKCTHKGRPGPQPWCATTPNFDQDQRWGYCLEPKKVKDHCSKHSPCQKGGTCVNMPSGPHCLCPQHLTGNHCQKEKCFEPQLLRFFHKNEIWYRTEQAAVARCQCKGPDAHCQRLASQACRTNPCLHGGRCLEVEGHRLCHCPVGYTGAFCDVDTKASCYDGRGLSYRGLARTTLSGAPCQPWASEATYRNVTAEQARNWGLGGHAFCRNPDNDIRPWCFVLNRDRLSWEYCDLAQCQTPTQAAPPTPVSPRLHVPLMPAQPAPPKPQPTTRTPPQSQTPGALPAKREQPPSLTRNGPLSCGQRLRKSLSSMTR
# Experiment: Determination of FXIIa inhibition (fluorogenic substrate H-DPro-Phe-Arg-AFC, IC50 assay)
# Format: biochemical
# Details: substrate at Km concentration, 25° C.; category scale; read-out: Human FXII IC50 (nm)
# Procedure, shortened: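 At substrate Km and 25° C., the rate of AFC release from H-DPro-Phe-Arg-AFC by human Factor XIIa was followed for 5 min across compound concentrations. Inhibition was derived as percent of uninhibited rate, giving IC50.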
row,Compound,IC50 [µM]
1,"Nc1nccc2c(NCC34CC(COc5cnccn5)(CCO3)C4)cccc12 [Example 10976, N5-((5-((pyrazin-2-yloxy)methyl)-2-oxabicyclo[3.1.1]heptan-1-yl)methyl)isoquinoline-1,5-diamine]",10 to 40
2,"Cn1ccc(OCC23CN(C(=O)Oc4ccccc4Cl)C(CNc4cccc5c(N)nccc45)(C2)C3)cc1=O [Example 12015, 2-chlorophenyl 1-(((1-aminoisoquinolin-5-yl)amino)methyl)-4-(((1-methyl-2-oxo-1,2-dihydropyridin-4-yl)oxy)methyl)-2-azabicyclo[2.1.1]hexane-2-carboxylate]",0.01 to 0.1
3,"Cn1c(OCC23CCOC(CNc4cccc5c(N)nccc45)(C2)C3)cccc1=O [Example 10945, 6-((1-(((1-aminoisoquinolin-5-yl)amino)methyl)-2-oxabicyclo[3.1.1]heptan-5-yl)methoxy)-1-methylpyridin-2(1H)-one]",3 to 10
4,"Nc1nccc2c(NCC34CC(CN5CCCC5=O)(CO3)C4)cccc12 [Example 6649, 1-((1-(((1-aminoisoquinolin-5-yl)amino)methyl)-2-oxabicyclo[2.1.1]hexan-4-yl)methyl)pyrrolidin-2-one]",10 to 40
5,"Cn1cc(OCC23CCOC(CNc4cccc5c(N)nccc45)(C2)C3)ccc1=O [Example 10943, 5-((1-(((1-aminoisoquinolin-5-yl)amino)methyl)-2-oxabicyclo[3.1.1]heptan-5-yl)methoxy)-1-methylpyridin-2(1H)-one]",1 to 3
6,"CC(C)c1cc(OCC23COC(CNc4cccc5c(N)nccc45)(C2)C3)cn2ccnc12 [Example 6641, N5-((4-(((8-isopropylimidazo[1,2-a]pyridin-6-yl)oxy)methyl)-2-oxabicyclo[2.1.1]hexan-1-yl)methyl)isoquinoline-1,5-diamine]",0.1 to 0.3
7,"CC(C)c1cc(OCC23CCOC(CNc4cccc5c(N)nccc45)(C2)C3)ncn1 [Example 10948, N5-((5-(((6-isopropylpyrimidin-4-yl)oxy)methyl)-2-oxabicyclo[3.1.1]heptan-1-yl)methyl)isoquinoline-1,5-diamine]",1 to 3
8,"Nc1nccc2c(NCC34CC(COc5ccc6ncc(C(F)F)n6c5)(CO3)C4)cccc12 [Example 6644, 5-N-[[4-[[3-(Difluoromethyl)imidazo[1,2-a]pyridin-6-yl]oxymethyl]-2-oxabicyclo[2.1.1]hexan-1-yl]methyl]isoquinoline-1,5-diamine]",0.3 to 1
9,"Nc1nccc2c(NCC34CC(Cn5nccn5)(CO3)C4)cccc12 [Example 6647, N5-((4-((2H-1,2,3-triazol-2-yl)methyl)-2-oxabicyclo[2.1.1]hexan-1-yl)methyl)isoquinoline-1,5-diamine]",40 to 100
10,"COc1ccncc1OCC12CCOC(CNc3cccc4c(N)nccc34)(C1)C2 [Example 10954, N5-((5-(((4-methoxypyridin-3-yl)oxy)methyl)-2-oxabicyclo[3.1.1]heptan-1-yl)methyl)isoquinoline-1,5-diamine]",3 to 10
11,"Nc1nccc2c(NCC34CC(COc5cccnc5)(CCO3)C4)cccc12 [Example 10968, N5-((5-((pyridin-3-yloxy)methyl)-2-oxabicyclo[3.1.1]heptan-1-yl)methyl)isoquinoline-1,5-diamine]",3 to 10
12,"Nc1nccc2c(NCC34CC(COc5ccccc5N5CCCC5=O)(CO3)C4)cccc12 [Example 6654, 1-(2-((1-(((1-aminoisoquinolin-5-yl)amino)methyl)-2-oxabicyclo[2.1.1]hexan-4-yl)methoxy)phenyl)pyrrolidin-2-one]",10 to 40
13,"Cc1cnc2ccc(OCC34COC(CNc5ccnc(N)c5)(C3)C4)cn12 [Example 6660, N4-((4-(((3-methylimidazo[1,2-a]pyridin-6-yl)oxy)methyl)-2-oxabicyclo[2.1.1]hexan-1-yl)methyl)pyridine-2,4-diamine]",3 to 10
14,"Cn1nncc1OCC12CCOC(CNc3cccc4c(N)nccc34)(C1)C2 [Example 10946, N5-((5-(((1-methyl-1H-1,2,3-triazol-5-yl)oxy)methyl)-2-oxabicyclo[3.1.1]heptan-1-yl)methyl)isoquinoline-1,5-diamine]",3 to 10
15,"Cc1cnc2ccc(OCC34COC(CNc5ccccc5C#N)(C3)C4)cn12 [Example 6658, 2-(((4-(((3-methylimidazo[1,2-a]pyridin-6-yl)oxy)methyl)-2-oxabicyclo[2.1.1]hexan-1-yl)methyl)amino)benzonitrile]",10 to 40
16,"Nc1nccc2c(NCC34CC(COc5ccc6c(c5)C(=O)NC6)(CCO3)C4)cccc12 [Example 10941, 6-((1-(((1-aminoisoquinolin-5-yl)amino)methyl)-2-oxabicyclo[3.1.1]heptan-5-yl)methoxy)isoindolin-1-one]",0.3 to 1
17,"Cc1cnc2ccc(OCC34COC(CNc5ccccc5CC(F)(F)F)(C3)C4)cn12 [Example 6659, N-((4-(((3-methylimidazo[1,2-a]pyridin-6-yl)oxy)methyl)-2-oxabicyclo[2.1.1]hexan-1-yl)methyl)-2-(2,2,2-trifluoroethyl)aniline]",40 to 100

# More lines, now with the values ahead:
row,IC50 [µM],Compound
1,0.01 to 0.1,"Cn1ccc(OCC23CN(C(=O)CCc4cccc5ncccc45)C(CNc4cccc5c(N)nccc45)(C2)C3)cc1=O [Example 12052, 4-((1-(((1-aminoisoquinolin-5-yl)amino)methyl)-2-(3-(quinolin-5-yl)propanoyl)-2-azabicyclo[2.1.1]hexan-4-yl)methoxy)-1-methylpyridin-2(1H)-one]"
2,0.01 to 0.1,"Cn1ccc(OCC23CN(C(=O)CCc4cccc(C(F)(F)F)c4)C(CNc4cccc5c(N)nccc45)(C2)C3)cc1=O [Example 12050, 4-((1-(((1-aminoisoquinolin-5-yl)amino)methyl)-2-(3-(3-(trifluoromethyl)phenyl)propanoyl)-2-azabicyclo[2.1.1]hexan-4-yl)methoxy)-1-methylpyridin-2(1H)-one]"
3,0.01 to 0.1,"Cn1ccc(OCC23CN(C(=O)CCc4cccc(C#N)c4)C(CNc4cccc5c(N)nccc45)(C2)C3)cc1=O [Example 12044, 3-(3-(1-(((1-aminoisoquinolin-5-yl)amino)methyl)-4-(((1-methyl-2-oxo-1,2-dihydropyridin-4-yl)oxy)methyl)-2-azabicyclo[2.1.1]hexan-2-yl)-3-oxopropyl)benzonitrile]"
4,0.001 to 0.01,"CN(Cc1ccccc1)C(=O)N1CC2(COc3ccn(C)c(=O)c3)CC1(CNc1cccc3c(N)nccc13)C2 [Example 12041, 1-[[(1-Amino-5-isoquinolyl)amino]methyl]-N-benzyl-N-methyl-4-[(1-methyl-2-oxo-4-pyridyl)oxymethyl]-2-azabicyclo[2.1.1]hexane-2-carboxamide]"
5,0.3 to 1,"Cn1ccc(OCC23CN(C(=O)NCc4ccccc4)C(CNc4c(F)ccc5c(N)nccc45)(C2)C3)cc1=O [Example 12072, 1-(((1-amino-6-fluoroisoquinolin-5-yl)amino)methyl)-N-benzyl-4-(((1-methyl-2-oxo-1,2-dihydropyridin-4-yl)oxy)methyl)-2-azabicyclo[2.1.1]hexane-2-carboxamide]"
6,0.01 to 0.1,"Cn1ccc(OCC23CN(C(=O)CCc4cccc(C(=O)O)c4)C(CNc4cccc5c(N)nccc45)(C2)C3)cc1=O [Example 12051, 3-(3-(1-(((1-aminoisoquinolin-5-yl)amino)methyl)-4-(((1-methyl-2-oxo-1,2-dihydropyridin-4-yl)oxy)methyl)-2-azabicyclo[2.1.1]hexan-2-yl)-3-oxopropyl)benzoic acid]"
7,0.3 to 1,"Cn1ccc(OCC23CC(CNc4cccc5c(N)nccc45)(CN2C(=O)Nc2ccccc2)C3)cc1=O [Example 13019, 4-(((1-aminoisoquinolin-5-yl)amino)methyl)-1-(((1-methyl-2-oxo-1,2-dihydropyridin-4-yl)oxy)methyl)-N-phenyl-2-azabicyclo[2.1.1]hexane-2-carboxamide]"
8,0.1 to 0.3,"Cn1ccc(OCC23CN(c4nccc(-c5ccccc5)n4)C(CNc4cccc5c(N)nccc45)(C2)C3)cc1=O [Example 12031, 4-((1-(((1-aminoisoquinolin-5-yl)amino)methyl)-2-(4-phenylpyrimidin-2-yl)-2-azabicyclo[2.1.1]hexan-4-yl)methoxy)-1-methylpyridin-2(1H)-one]"
9,0.1 to 0.3,"Cn1ccc(OCC23CC(CNc4cccc5c(N)nccc45)(CN2C(=O)OC(C)(C)C)C3)cc1=O [Example 13005, tert-butyl 4-(((1-aminoisoquinolin-5-yl)amino)methyl)-1-(((1-methyl-2-oxo-1,2-dihydropyridin-4-yl)oxy)methyl)-2-azabicyclo[2.1.1]hexane-2-carboxylate]"
10,0.1 to 0.3,"Cn1ccc(OCC23CN(C(=O)OC(C)(C)C)C(CNc4cccc5c(N)nccc45)(C2)C3)cc1=O [Example 12027, tert-butyl 1-(((1-aminoisoquinolin-5-yl)amino)methyl)-4-(((1-methyl-2-oxo-1,2-dihydropyridin-4-yl)oxy)methyl)-2-azabicyclo[2.1.1]hexane-2-carboxylate]"
